The text below walks through data of US20260216138A1, “IDENTIFICATION OF OTUD7B INHIBITOR 7BI AND ITS APPLICATION IN REDUCING GROWTH OF NSCLC AND LEUKEMIA CELLS” (The University of North Carolina at Chapel Hill, priority 2023, published 2026).

Test [1] concerns K63-linked ubiquitination of GβL. Put plainly: Endogenous K63-linked GβL ubiquitination (GβL-IP). In kind it is cell-based. The settings on record: 16 hrs. The protocol:
(§1) Cells were harvested and lysed in EBC buffer (50 mM Tris pH 7.5, 120 mM NaCl, 0.5% NP-40) supplemented with protease inhibitor cocktail (EDTA-free, mini-tablet) (Bimake) and phosphatase inhibitor cocktail (Bimake) by rotating in the cold room for 10 min followed by high-speed centrifugation at 4° C. The protein concentrations in supernatants of whole cell lysates were measured by NanoDrop OneC using the Bio-Rad Bradford protein assay reagent. Equal amounts of whole cell lysates were resolved on SDS-PAGE and immunoblotted with indicated antibodies. For immunoprecipitation analysis, 1 mg of total cell lysate was incubated with the indicated beads for 3-4 hr at 4° C. The recovered immuno-complexes were washed thoroughly three times with NETN buffer (20 mM Tris, pH 8.0, 100 mM NaCl, 1 mM EDTA and 0.5% NP-40) before being resuspended in SDS sample buffer and resolved on SDS-PAGE and immunoblotted with indicated antibodies.

In test [2] the target is T1, OTUD7B (Homo sapiens, UniProt Q6GQQ9).
T1 construct: OTUD7B (residues 56-446); GST (N, cleaved yes); made in house; host or cells: E. coli BL21-Codon Plus (DE3)-RIL
T1 sequence (Q6GQQ9 56-446): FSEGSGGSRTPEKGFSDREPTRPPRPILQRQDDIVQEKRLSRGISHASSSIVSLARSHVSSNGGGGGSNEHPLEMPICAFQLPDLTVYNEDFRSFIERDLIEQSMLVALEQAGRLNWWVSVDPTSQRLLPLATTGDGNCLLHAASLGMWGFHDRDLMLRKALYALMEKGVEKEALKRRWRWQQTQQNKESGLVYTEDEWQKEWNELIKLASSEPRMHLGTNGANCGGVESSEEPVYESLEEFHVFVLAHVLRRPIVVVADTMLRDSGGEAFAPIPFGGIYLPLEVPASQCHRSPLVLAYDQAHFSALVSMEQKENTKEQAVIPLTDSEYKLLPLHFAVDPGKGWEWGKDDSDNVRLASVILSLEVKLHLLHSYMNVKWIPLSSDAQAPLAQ
Put plainly: Ubiquitin-AMC assay, OTUD7B. In kind it is biochemical. The note with it: 50 μM 7Bi, 300 nM OTUD7B, 2 uM ubiquitin-AMC. The protocol:
50 μM 7Bi were incubated with 300 nM OTUD7B (residues 56-446), 10 μM OTUD7A (residues 1-462), 200 nM USP21 (residues 196-565), or 500 nM USP9X (residues 1551-1970) in reaction buffer (20 mM HEPES pH=8.0, 200 mM NaCl, 0.25 mg/mL BSA and 0.005% Tween-20) for 5 min at room temperature. Then, 2 uM ubiquitin-AMC was added to start the reaction. The fluorescence emission data was collected at an excitation wavelength of 355 nm and emission wavelength of 460 nm every 3 min. Reactions were completed three times to generate the error bars.

Test [3] has as its system OTUD7B. Put plainly: OTUD7B protein levels by immunoblot. In kind it is cell-based. The note with it: 16 hrs. The protocol:
as §1

Turning to `Cc1cc(NC(=O)c2cnn(C)c2C(=O)Nc2cc(C)nn2C2CCCC2)n(C2CCCC2)n1` [7Bi], the “K63-linked ubiquitination of GβL at endogenous levels” value in test [1] (A549 cells) is “increased K63-linked ubiquitination of GβL at endogenous levels”. Also, the “K63-linked GβL ubiquitination at endogenous levels” value in test [1] (K562 cells) was “increased K63-linked GβL ubiquitination at endogenous levels”. On OTUD7B [2], the “inhibition of hydrolysis of ubiquitin-AMC by OTUD7B” value is given as “efficiently inhibited hydrolysis of ubiquitin-AMC”. The OTUD7B protein levels entry with OTUD7B [3] (A549 cells) and with OTUD7B [3] (HEK293 cells) was “did not significantly affect OTUD7B protein levels” in each case.
